Measured values from PubChem BioAssay AID2060904 (Molecular Pharmacology Branch, DTP, NCI, 2025).

Tested on: 349418-098-R-PDC complex spheroid viability
Experiment: Anticancer human tumor 349418-098-R-PDC patient-derived lung adenocarcinoma cell line growth inhibition [RAS]
Details: for viability, T/C: stronger effect = lower value
Procedure, shortened: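 Multi-cell-type spheroids: tumor cells plus HUVEC endothelial cells and mesenchymal stem cells. RAS-pathway inhibitors were combined with targeted agents, each dosed in half-log steps down from clinical Cmax, or from 10 microM when Cmax was unknown.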
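Note: spheroids exposed to compound for seven days before viability readout.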

**Q.** What does the source list for C=CC(=O)Nc1cc(Nc2nccc(-c3cn(C)c4ccccc34)n2)c(OC)cc1N(C)CCN(C)C + C#Cc1c(F)ccc2cc(O)cc(-c3ncc4c(N5CC6CCC(C5)N6)nc(OCC56CCCN5CC(F)C6)nc4c3F)c12?
**A.** IC50 (curve of first compound, second compound 0.0316 µM): > 1000 nM; IC50 (curve of first compound, second compound 0.1 µM): > 1000 nM; IC50 (curve of first compound, second compound 0.316 µM): > 1000 nM; IC50 (curve of first compound, second compound 1 µM): > 1000 nM; IC50 (curve of first compound, second compound 3.16 µM): > 1000 nM; IC50 (curve of first compound, second compound 10 µM): 465 nM; viability, T/C (second compound 0.0316 µM, first compound 0.00316 µM): 97.1%; viability, T/C (second compound 0.0316 µM, first compound 0.01 µM): 130%; viability, T/C (second compound 0.0316 µM, first compound 0.0316 µM): 95.5%; viability, T/C (second compound 0.0316 µM, first compound 0.1 µM): 86.1%; viability, T/C (second compound 0.0316 µM, first compound 0.316 µM): 84.3%; viability, T/C (second compound 0.0316 µM, first compound 1 µM): 92.3%; viability, T/C (second compound 0.1 µM, first compound 0.00316 µM): 93.5%; viability, T/C (second compound 0.1 µM, first compound 0.01 µM): 125%; viability, T/C (second compound 0.1 µM, first compound 0.0316 µM): 82.3%; viability, T/C (second compound 0.1 µM, first compound 0.1 µM): 68.3%; viability, T/C (second compound 0.1 µM, first compound 0.316 µM): 80.2%; viability, T/C (second compound 0.1 µM, first compound 1 µM): 66.5%; viability, T/C (second compound 0.316 µM, first compound 0.00316 µM): 86.7%; viability, T/C (second compound 0.316 µM, first compound 0.01 µM): 119%; viability, T/C (second compound 0.316 µM, first compound 0.0316 µM): 85.8%; viability, T/C (second compound 0.316 µM, first compound 0.1 µM): 86.2%; viability, T/C (second compound 0.316 µM, first compound 0.316 µM): 89.5%; viability, T/C (second compound 0.316 µM, first compound 1 µM): 95.7%; viability, T/C (second compound 1 µM, first compound 0.00316 µM): 80.2%; viability, T/C (second compound 1 µM, first compound 0.01 µM): 121%; viability, T/C (second compound 1 µM, first compound 0.0316 µM): 85.3%; viability, T/C (second compound 1 µM, first compound 0.1 µM): 73.1%; viability, T/C (second compound 1 µM, first compound 0.316 µM): 89.2%; viability, T/C (second compound 1 µM, first compound 1 µM): 82.5%; viability, T/C (second compound 3.16 µM, first compound 0.00316 µM): 73.6%; viability, T/C (second compound 3.16 µM, first compound 0.01 µM): 91.2%; viability, T/C (second compound 3.16 µM, first compound 0.0316 µM): 84.9%; viability, T/C (second compound 3.16 µM, first compound 0.1 µM): 82.8%; viability, T/C (second compound 3.16 µM, first compound 0.316 µM): 67.6%; viability, T/C (second compound 3.16 µM, first compound 1 µM): 86.4%; viability, T/C (second compound 10 µM, first compound 0.00316 µM): 55.6%; viability, T/C (second compound 10 µM, first compound 0.01 µM): 62%; viability, T/C (second compound 10 µM, first compound 0.0316 µM): 88.9%; viability, T/C (second compound 10 µM, first compound 0.1 µM): 65.2%; viability, T/C (second compound 10 µM, first compound 0.316 µM): 72.9%; viability, T/C (second compound 10 µM, first compound 1 µM): 12.4%

**Q.** What does the source list for C=CC(=O)Nc1cc(Nc2nccc(-c3cn(C)c4ccccc34)n2)c(OC)cc1N(C)CCN(C)C?
**A.** viability, T/C (compound 0.00316 µM): 104% [middle of 4 runs]; viability, T/C (compound 0.316 µM): 85.7% [middle of 4 runs]; viability, T/C (compound 1 µM): 71.4% [middle of 4 runs]; IC50 (curve of compound): > 1000 nM

**Q.** What does the source list for CC1(C)CCC(Nc2ncc(C(F)(F)F)c(-c3c[nH]c4c(P(C)(C)=O)c(C#N)ccc34)n2)CN1 (stereo not drawn) + CCn1c(-c2cc(N3CCN(C)CC3)cnc2C(C)OC)c2c3cc(ccc31)-c1csc(n1)CC(NC(=O)C1CC1C)C(=O)N1CCCC(N1)C(=O)OCC(C)(C)C2?
**A.** IC50 (curve of first compound, second compound 0.000949 µM): 1.07 nM; IC50 (curve of first compound, second compound 0.003 µM): 1.02 nM; IC50 (curve of first compound, second compound 0.00949 µM): < 0.949 nM; IC50 (curve of first compound, second compound 0.03 µM): 1.05 nM; IC50 (curve of first compound, second compound 0.0949 µM): < 0.949 nM; IC50 (curve of first compound, second compound 0.3 µM): 1.09 nM; viability, T/C (second compound 0.000949 µM, first compound 0.000949 µM): 53.6%; viability, T/C (second compound 0.000949 µM, first compound 0.003 µM): 23.1%; viability, T/C (second compound 0.000949 µM, first compound 0.00949 µM): 13.3%; viability, T/C (second compound 0.000949 µM, first compound 0.03 µM): 9.61%; viability, T/C (second compound 0.000949 µM, first compound 0.0949 µM): 8.11%; viability, T/C (second compound 0.000949 µM, first compound 0.3 µM): 6.35%; viability, T/C (second compound 0.003 µM, first compound 0.000949 µM): 52.2%; viability, T/C (second compound 0.003 µM, first compound 0.003 µM): 22.1%; viability, T/C (second compound 0.003 µM, first compound 0.00949 µM): 14.4%; viability, T/C (second compound 0.003 µM, first compound 0.03 µM): 8.76%; viability, T/C (second compound 0.003 µM, first compound 0.0949 µM): 7.99%; viability, T/C (second compound 0.003 µM, first compound 0.3 µM): 7.95%; viability, T/C (second compound 0.00949 µM, first compound 0.000949 µM): 50.2%; viability, T/C (second compound 0.00949 µM, first compound 0.003 µM): 26.2%; viability, T/C (second compound 0.00949 µM, first compound 0.00949 µM): 12.5%; viability, T/C (second compound 0.00949 µM, first compound 0.03 µM): 9.59%; viability, T/C (second compound 0.00949 µM, first compound 0.0949 µM): 9.15%; viability, T/C (second compound 0.00949 µM, first compound 0.3 µM): 8%; viability, T/C (second compound 0.03 µM, first compound 0.000949 µM): 53.3%; viability, T/C (second compound 0.03 µM, first compound 0.003 µM): 20.5%; viability, T/C (second compound 0.03 µM, first compound 0.00949 µM): 12.5%; viability, T/C (second compound 0.03 µM, first compound 0.03 µM): 9.78%; viability, T/C (second compound 0.03 µM, first compound 0.0949 µM): 8.18%; viability, T/C (second compound 0.03 µM, first compound 0.3 µM): 8.17%; viability, T/C (second compound 0.0949 µM, first compound 0.000949 µM): 49.1%; viability, T/C (second compound 0.0949 µM, first compound 0.003 µM): 23.5%; viability, T/C (second compound 0.0949 µM, first compound 0.00949 µM): 11.1%; viability, T/C (second compound 0.0949 µM, first compound 0.03 µM): 10.2%; viability, T/C (second compound 0.0949 µM, first compound 0.0949 µM): 10.9%; viability, T/C (second compound 0.0949 µM, first compound 0.3 µM): 7.97%; viability, T/C (second compound 0.3 µM, first compound 0.000949 µM): 53.6%; viability, T/C (second compound 0.3 µM, first compound 0.003 µM): 23.7%; viability, T/C (second compound 0.3 µM, first compound 0.00949 µM): 11.2%; viability, T/C (second compound 0.3 µM, first compound 0.03 µM): 11%; viability, T/C (second compound 0.3 µM, first compound 0.0949 µM): 9.58%; viability, T/C (second compound 0.3 µM, first compound 0.3 µM): 7.73%
